Reference: ChEMBL document CHEMBL1949629, “Discovery of a second generation agonist of the orphan G-protein coupled receptor GPR119 with an improved profile” (Bioorg Med Chem Lett, 2012)
In brackets after ≈: the same amount, converted by molar mass.

Tests used:
[1] = Solubility in 20% HPbetaCD after 24 hrs; assay type: physicochemical
[2] = Half life cynomolgus monkey at 25 to 400 mg administered once daily; assay type: ADME, organism-based, Macaca fascicularis; conditions: in vivo
Cytochrome P450 2C9 = Cytochrome P450 2C9 (Homo sapiens, UniProt P11712); experiment: Inhibition of CYP2C9; assay type: ADME
[3] = Solubility in 40% HPbetaCD after 24 hrs; assay type: physicochemical

Chain of Cytochrome P450 2C9 (P11712 whole entry): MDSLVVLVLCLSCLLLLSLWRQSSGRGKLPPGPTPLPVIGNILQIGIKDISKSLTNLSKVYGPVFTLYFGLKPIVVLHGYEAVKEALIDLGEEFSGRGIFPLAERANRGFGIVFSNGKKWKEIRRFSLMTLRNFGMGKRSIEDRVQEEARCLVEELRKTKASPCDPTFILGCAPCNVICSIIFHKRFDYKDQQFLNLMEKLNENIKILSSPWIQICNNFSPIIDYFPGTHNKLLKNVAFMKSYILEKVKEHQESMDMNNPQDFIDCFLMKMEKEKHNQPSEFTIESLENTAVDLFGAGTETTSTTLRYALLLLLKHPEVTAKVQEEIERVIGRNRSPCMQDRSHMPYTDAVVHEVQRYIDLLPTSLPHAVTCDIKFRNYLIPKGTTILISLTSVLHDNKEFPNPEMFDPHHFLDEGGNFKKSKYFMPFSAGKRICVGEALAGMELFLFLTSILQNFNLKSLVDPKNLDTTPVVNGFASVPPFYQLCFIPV

SMILES: Cc1ccc(Oc2ncnc(OC3CCN(C(=O)OC(C)C)CC3)c2C)c(C)n1
- solubility at 24 h [1]: 13200 µg/mL (≈ 33.1 mM)

SMILES: Cc1nc(S(C)(=O)=O)ccc1Nc1ncnc(OC2CCN(C(=O)OC(C)C)CC2)c1C1CC1
- solubility at 24 h [1]: 17700 µg/mL (≈ 36.2 mM)

SMILES: CC(CO)OC(=O)N1CCC(Oc2ncnc3c2cnn3-c2ccc(S(C)(=O)=O)cc2F)CC1 (configuration not stated)
- half-life [2]: 41 h

SMILES: Cc1nc(S(C)(=O)=O)ccc1Nc1ncnc(OC2CCN(C(=O)OC(C)C)CC2)c1C(F)F
- solubility at 24 h [1]: 17300 µg/mL (≈ 34.6 mM)

SMILES: Cc1c(Oc2ccc(S(C)(=O)=O)cc2F)ncnc1OC1CCN(C(=O)OC(C)C)CC1
- IC50 (Cytochrome P450 2C9): 5.3 µM
- solubility at 24 h [3]: 1100 µg/mL (≈ 2.35 mM)
- solubility at 24 h [1]: 1100 µg/mL (≈ 2.35 mM)

SMILES: Cc1c(Oc2cncc(F)c2)ncnc1OC1CCN(C(=O)OC(C)C)CC1
- solubility at 24 h [1]: 5100 µg/mL (≈ 13.1 mM)

SMILES: Cc1nc(S(C)(=O)=O)ccc1Nc1ncnc(OC2CCN(C(=O)OC(C)C)CC2)c1OC(F)F
- solubility at 24 h [1]: 7800 µg/mL (≈ 15.1 mM)

SMILES: Cc1ccncc1Oc1ncnc(OC2CCN(C(=O)OC(C)C)CC2)c1C
- solubility at 24 h [3]: 8500 µg/mL (≈ 22 mM)

SMILES: Cc1c(Nc2ccc(S(C)(=O)=O)cc2F)ncnc1OC1CCN(C(=O)OC(C)C)CC1
- solubility at 24 h [3]: 16700 µg/mL (≈ 35.8 mM)

SMILES: CCOc1c(Nc2ccc(S(C)(=O)=O)nc2C)ncnc1OC1CCN(C(=O)OC(C)C)CC1
- solubility at 24 h [1]: 3300 µg/mL (≈ 6.69 mM)
